From PubChem BioAssay (NCI)
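These data come from cells grown in 96-well plates and exposed to compound for 48 hours at five concentrations. The concentration for full growth arrest is given as TGI.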 *1 amine or outer side, *2 acyl side, *3 side chain or, on linkers, in order; H or OH if unused. Where a SMILES comes first, the peptide text is derived from it. Bridges are numbered along the chain shown (N, C = ends). Roman numbers before positions name the chains, in order. [ ]: non-standard residue; d: D form. ξ: configuration not given here. X54 = N=C(N)NCCC[C@@H](NC(=N)CCCCCCC(=N)N[C@H](CCCNC(=N)N)C(=O)[*:2])C(=O)[*:1]; dIgl = N[C@@H](C(=O)O)C1Cc2ccccc2C1; Hyp = O=C(O)[C@@H]1C[C@@H](O)CN1; ξIgl = NC(C(=O)O)C1Cc2ccccc2C1; ξOic = O=C(O)C1CC2CCCCC2N1; ξR = N=C(N)NCCCC(N)C(=O)O; ξP = O=C(O)C1CCCN1; ξS = NC(CO)C(=O)O

Columns and labels:
Experiment in all cases: NCI tumour cell line growth inhibition, 48 h
[1] = tested on: DLD-1 colon
[2] = tested on: KM20L2 colon
[3] = tested on: SN12K1 renal
[4] = tested on: P388 leukemia
[5] = tested on: M19-MEL melanoma
[6] = tested on: SNB-78 CNS
[7] = tested on: XF 498 CNS
[8] = tested on: DMS 273 small cell lung
[9] = tested on: HOP-18 NSCLC
[10] = tested on: P388/ADR leukemia
[11] = tested on: EKVX NSCLC
[12] = tested on: DMS 114 small cell lung
[13] = tested on: ACHN renal
[14] = tested on: MDA-MB-435
[15] = tested on: LXFL 529 NSCLC
[16] = tested on: RXF-631 renal

Structure (SMILES) | TGI [1] [µM] | TGI [2] [µM] | TGI [3] [µM] | TGI [4] [µM] | TGI [5] [µM] | TGI [6] [µM] | TGI [7] [µM] | TGI [8] [µM] | TGI [9] [µM] | TGI [10] [µM] | TGI [11] [µM] | TGI [12] [µM] | TGI [13] [µM] | TGI [14] [µM] | TGI [15] [µM] | TGI [16] [µM]
CCCCCCSc1nc(N)nc2nc[nH]c12 | > 100 | > 100 | > 100 | > 68 | > 100 | > 100 | > 89.6 | > 100 | > 72.6 | 44.4 | > 100 |  |  |  |  | 
CN(C)CCNC(=O)c1cccc2ccc(-c3ccc(Br)cc3)nc12 | 10.8 | 11.5 | 2.63 | 8.48 | 6.15 | 22.5 | 6.94 | 5.81 | 8.25 | 4.44 | 9.08 | 9.8 |  |  |  | 
CC(=O)C(=O)NC1/C=C(C)\C=C/C(O)C/C=C(C)\C=C/C(O)CC2OC(=O)C1(C)C(=O)C2C (configuration not stated) | > 100 | > 100 | > 100 | > 48.2 | > 100 | > 100 |  | > 100 | > 100 | > 66.6 | > 100 | > 100 |  |  |  | 
O=C(CCBr)N1CCN(C(=O)CCBr)CC1 | 202 | 277 | 196 | 293 | 252 | 295 | 133 | 168 | 238 | 181 | 212 | 140 | 316 | 245 | 137 | 134
CC1(C)OC[C@H](C(=N)OCc2ccccc2)O1 | > 100 | > 100 |  |  | > 100 | > 100 | > 100 | > 100 |  |  | > 100 | > 100 | > 100 |  | > 100 | 
COC1OCC(O)C(NC(=O)N(C)N=O)C1O (configuration not stated) | > 100 | > 100 | > 100 | > 100 | > 100 | > 100 | > 100 | > 100 | > 100 | > 100 | > 100 | > 100 |  |  |  | 
CC1=NN(C(=O)Cc2ccccc2)C(=O)/C1=C\c1ccc([N+](=O)[O-])cc1 | > 100 | > 100 |  |  | > 100 | > 100 | > 100 |  |  |  | > 100 | > 100 | > 100 |  | > 100 | 
CN(C)C(=O)Oc1c(Br)cc(Br)cc1C(=O)OCc1ccccc1 | > 96.8 | 57.7 | > 88.2 | 43 | 44.3 | > 100 | 49.2 | > 73.2 | 96.9 | 41.6 | > 100 | 53.1 |  |  |  | 
CC[C@@]1(O)C[C@H](OC2CC(N(C)C)C(O)C(C)O2)c2c(cc3c(c2O)C(=O)c2c(O)ccc(O)c2C3=O)[C@H]1C(=O)OC (some centres not stated) | 0.891 | 0.969 | 0.256 | 0.0317 | 0.288 | 1.34 | 0.463 | 0.406 | 1.3 | 0.0561 | 0.526 | 0.489 |  |  |  | 
N=C(N)NCCCC(NC(=O)C1CC2CCCCC2N1C(=O)[C@H](NC(=O)C(CO)NC(=O)C(NC(=O)CNC(=O)[C@@H]1C[C@@H](O)CN1C(=O)C1CCCN1C(=O)C(CCCNC(=N)N)NC(=O)[C@@H](CCCNC(=N)N)NC(=N)CCCCCCC(=N)N[C@H](CCCNC(=N)N)C(=O)NC(CCCNC(=N)N)C(=O)N1CCCC1C(=O)N1C[C@H](O)C[C@H]1C(=O)NCC(=O)NC(C(=O)NC(CO)C(=O)N[C@@H](C(=O)N1C(C(=O)NC(CCCNC(=N)N)C(=O)O)CC2CCCCC21)C1Cc2ccccc2C1)C1Cc2ccccc2C1)C1Cc2ccccc2C1)C1Cc2ccccc2C1)C(=O)O (some centres not stated) (I: [ξR][ξP][Hyp]G[ξIgl][ξS][dIgl][ξOic][ξR]-OH / II: [ξR][ξP][Hyp]G[ξIgl][ξS][dIgl][ξOic][ξR]-OH; linker I:N-II:N via X54) |  |  |  |  |  |  |  |  |  |  | 3.67 |  | 3.91 | 4.18 |  | 
COC(=O)CNC(=O)C(Cc1ccccc1)NC(=O)c1ccc(-c2ccc(Cl)cc2Cl)o1 (configuration not stated) |  |  |  |  |  |  |  |  |  |  | 78.6 |  | 66.5 | > 100 |  | 
COc1cc(C2S/C(=C/c3ccccc3)C(=O)N2Cc2ccccc2)cc(OC)c1OC (configuration not stated) |  |  |  |  |  |  |  |  |  |  | > 100 |  | > 100 | > 100 |  | 
CSc1ncc2c(n1)-c1ccccc1OC2N1CCOCC1 (configuration not stated) |  |  |  |  |  |  |  |  |  |  | > 100 |  | > 100 | > 100 |  | 
CC(C)(C)COC(=O)C(C)(C)NC(=O)C(CC(=O)OCc1ccccc1)NC(=O)OCc1ccccc1 (configuration not stated) |  |  |  |  |  |  |  |  |  |  | > 100 |  | > 100 | 89.9 |  | 
CC(=O)OCC1OC(N2C(=O)NC(=O)C3C=C4CCCCC4=CC32)CC1OC(C)=O (configuration not stated) |  |  |  |  |  |  |  |  |  |  | > 100 |  | > 100 | > 100 |  | 
COc1cc(C2c3cc4c(cc3OC(NNc3ccccc3)C2C)OCO4)cc(OC)c1OC (configuration not stated) |  |  |  |  |  |  |  |  |  |  | 21.1 |  | 27.5 | 1.31 |  | 
Cc1nnc(N)nc1/C=C\c1ccc(Cl)cc1Cl |  |  |  |  |  |  |  |  |  |  | > 100 |  | > 100 | > 100 |  | 
Nc1nc(NCCOCP(=O)(O)O)c([N+](=O)[O-])c(=O)[nH]1 | > 100 | > 100 |  |  | > 100 | > 100 | > 100 | > 100 | > 100 |  | > 100 |  | > 100 |  | > 100 | 
O=C1c2cc(I)ccc2N2CCN=C2N1Cc1ccccc1 |  |  |  |  |  |  |  |  |  |  | > 100 |  | > 100 | > 100 |  | 
CCc1cc(C)cc2[n+]1CC=C2 |  | 95.6 |  |  | 52.4 | > 100 | 20.4 | 6.55 | 0.0991 |  | 87.9 | 44.3 | 35.4 |  | 79.2 | 
